Test results published in patent US7156881B2, “Counteracting bioprosthetic calcification” (The Children's Hospital of Philadelphia, priority 2002, dated 2007).
Marks after values point to notes of the source that are not given here.

How the values were obtained:
[1] = Kinetics of epoxy-ring opening with different nucleophiles (t-butyl glycidyl ether in water); type: physicochemical; details: for Reacted substrate / k · 10^3: 20° C., pH ca. 7; for reactivity relative to nucleophiles without a sulfur atom: 20° C. and pH of about 7
Text: Pursuant to the present invention, the functional groups need to cleave an epoxy ring, and nucleophilic groups are illustrative in this respect.

[2] = Rat weight in 21-day subdermal implant study; details: 21-day rat subdermal implants
Protocol: All materials were rinsed thoroughly with normal saline, and 1 cm^2 pieces of aortic wall, pericardium, or individual cusp leaflets crosslinked with 100 mM TGA with the inclusion of 20 mM MABP, as described above with daily replacement of solutions for 7 days. After thorough rinse with normal saline, biomaterials were surgically implanted in dorsal subdermal pouches of 75–80 g male Sprague-Dawley rats as previously described. Animals were sacrificed after 21 days, implants recovered, rinsed, dried, and analyzed for Ca content by atomic absorption spectroscopy (AA).

[3] = tested on: aortic wall segment of a bioprosthetic implant; details: TGA-crosslinking methodology, related art; cited from earlier work
[4] = TGA cross-linking of bovine pericardium, shrink temperature (Ts) by DSC; type: physicochemical; details: for shrink temperature (Ts): 100 mM TGA, borate mannitol buffer pH 7.4, room temperature
Protocol: Bovine pericardium was obtained fresh at slaughter and transported to the lab on ice. After extensive rinsing with normal saline, the tissue was cut into 1 cm squares and segregated into 5 groups for crosslinking as described below. Reactions were carried out at room temperature on a rocker platform for 7 days with daily replacement of each solution with one freshly prepared in borate mannitol buffer (9.33 g/l sodium tetraborate, −˜2 g mannitol to pH 7.4). Pericardial samples were removed from the reaction vessels daily, rinsed and stored individually at 4° C. in normal saline for shrink temperature determination (Ts) by Differential Scanning […] (DSC) analysis at the end of the experiment.
MABP stock solution was prepared daily by adding water, neutralizing with NaHCO3, and diluting to one of the three desired concentrations (2 mM, 20 mM, 100 mM) in boratemannitol buffer. TGA then was added to each solution to a final concentration of 100 mM TGA. Two additional groups were treated solely with 100 mM TGA in the same buffer for 7 days, and one of these treated again on day 8 with 100 mM MABP in buffer.
Further experiments were done testing the anti-calcification potential of MABP co-attachment utilized the maximum non-interfering condition tested: 20 mM MABP and 100 mM TGA in borate-mannitol buffer, pH 7.4. Those experimental data are shown in Table III and graphically in FIG. 1.

[5] = tested on: bovine pericardial calcification; details: TGA-crosslinking methodology, related art; cited from earlier work
porcine aortic wall = assay: 21-day rat subdermal implants, Ca content by atomic absorption: aortic wall; type: in vivo, Sprague-Dawley rats; details: Aortic wall implanted
Protocol: (§1) A series of bioprosthetic material samples were prepared, in order to compare the anti-calcification efficacy of TGA-MABP with TGA crosslinking alone. The material used were porcine aortic valve cusps, porcine aortic wall, and bovine pericardium. These materials were obtained fresh at slaughter and transported to the laboratory on ice.

[6] = tested on: porcine aortic valve cusps; assay: 21-day rat subdermal implants, Ca content by atomic absorption: cusp; type: in vivo, Sprague-Dawley rats; details: Cusp implanted
Protocol: as §1

bovine pericardium = assay: 21-day rat subdermal implants, Ca content by atomic absorption: pericardium; type: in vivo, Sprague-Dawley rats; details: Pericardium implanted
Protocol: as §1

[7] = Kinetics of epoxy-ring opening with different nucleophiles (triglicidyl amine in water); type: physicochemical; details: 20° C.; for rate of reaction with TGA-epoxy (k): pH 7.4, 20 mM of MABP; for K * 10^3 / Reacted substrate: pH ca. 7
Text: The bioprosthetic materials treated by both MABP and TGA show a significant improvement in anti-calcification ability. Consequently, it is believed that the MABP has successfully met the above-mentioned criteria, i.e., the reactive functional group is active enough to dominate the co-attachment reaction between MABP and TGA, and to cause MABP to attach to a TGA epoxide more completely.

[8] = substrate 0.1 M, epoxide 0.3 M, time of reaction 120 h
[9] = substrate 0.1 M, epoxide 0.3 M, time of reaction 3 h
[10] = substrate 0.1 M, epoxide 0.3 M, time of reaction 19 h
[11] = substrate 0.4 M, epoxide 0.3 M, time of reaction 120 h
[12] = substrate 0.1 M, epoxide 0.3 M, time of reaction 48 h
[13] = substrate 0.2 M, epoxide 0.1 M, time of reaction 2 h
[14] = substrate 0.1 M, epoxide 0.3 M, time of reaction 5 min
[15] = substrate 0.1 M, epoxide 0.3 M, time of reaction 15 min
[16] = substrate 0.2 M, epoxide 0.1 M, time of reaction 1 h
[17] = substrate 0.2 M, epoxide 0.06 M, time of reaction 1.75 h

With CC(=O)N[C@@H](Cc1c[nH]cn1)C(=O)O [N-Acetyl-L-histidine] the Reacted substrate [1, 8] was 60% and the “k · 10^3” value [1, 8] was 29 l/mol · h.
With CSCCC(NC(C)=O)C(=O)O (racemic) [N-Acetyl-DL-methionine] the “reactivity relative to nucleophiles without a sulfur atom” value [1] was “at least twenty times more reactive”, the Reacted substrate [1, 9] was 33% and the “k · 10^3” value [1, 9] was 473 l/mol · h. The Reacted substrate [1, 10] was 89% and the “k · 10^3” value [1, 10] was 488 l/mol · h.
In the case of CC(O)(P(=O)(O)O)P(=O)(O)O [HEDP], the Reacted substrate [1, 11] is reported as 5.5% and the “k · 10^3” value [1, 11] is reported as 1.6 l/mol · h.
For C1OC1CN(CC1CO1)CC1CO1 (centres unmarked) [TGA, triglycidyl amine], the Rat weight ([2]; Aortic wall implanted) is listed as 247.8 ± 7.9 g, the Rat weight ([2]; Pericardium implanted) is listed as 268.2 ± 9.9 g and the “inhibition of calcification of the aortic wall segment” value [3] is listed as “relatively ineffective”. For the same compound, the “shrink temperature (Ts)” value ([4]; Day 1 of crosslinking) was 72.6 +/− 1.0, the “shrink temperature (Ts)” value ([4]; Day 2 of crosslinking) was 77.4 +/− 0.5 and the “shrink temperature (Ts)” value ([4]; Day 3 of crosslinking) was 78.2 +/− 0.3. The “shrink temperature (Ts)” value ([4]; Day 4 of crosslinking) was 79.6 +/− 0.4, the “shrink temperature (Ts)” value ([4]; Day 6 of crosslinking) was 80.2 +/− 0.3 and the “shrink temperature (Ts)” value ([4]; Day 7 of crosslinking) was 81.0 +/− 0.6. For the same compound, the “inhibiting bovine pericardial calcification” value [5] was “less effective”, the Ca (porcine aortic wall) was 7.73 +/− 0.90 μg/mg dry wt and the Ca ([6]; rat subdermal implants, prev. exp.) was 2.07 +/− 0.31 μg/mg dry wt. The Ca (bovine pericardium) was 11.23 +/− 4.74 μg/mg dry wt.
With c1c[nH]cn1 [Imidazole] the Reacted substrate [1, 12] was 28% and the “k · 10^3” value [1, 12] was 24 l/mol · h.
In the case of Phosphate, the Reacted substrate [1, 11] is reported as 12% and the “k · 10^3” value [1, 11] is reported as 3.9 l/mol · h.
For O=P(O)(O)C(CS)P(=O)(O)O [MEBP, 2-mercaptoethlidene-1,1-bisphosphonate], the “rate of reaction with TGA-epoxy (k)” value [7] was 0.035 mol⁻¹ h⁻¹, the “K * 10^3” value [7, 13] was 35 1/mol * h and the Reacted substrate [7, 13] was 0.7%.
With O=S(O)(O)=S [Thiosulfate] the “reactivity relative to nucleophiles without a sulfur atom” value [1] was “at least twenty times more reactive”, the Reacted substrate [1, 14] was 30% and the “k · 10^3” value [1, 14] was 23 000 l/mol · h. The Reacted substrate [1, 15] was 52%, the “k · 10^3” value [1, 15] was 17 000 l/mol · h and the “K * 10^3” value [7, 14] was 23000 1/mol * h. For the same compound, the Reacted substrate [7, 14] was 30%, the “K * 10^3” value [7, 15] was 17000 1/mol * h and the Reacted substrate [7, 15] was 52%.
With N[C@@H](CS)C(=O)O [Cysteine] the “reactivity relative to nucleophiles without a sulfur atom” value [1] was “at least twenty times more reactive”, the Reacted substrate [1, 16] was 13% and the “k · 10^3” value [1, 16] was 1618 l/mol · h. The “K * 10^3” value [7, 16] was 1618 1/mol * h and the Reacted substrate [7, 16] was 13%.
With O=P(O)(O)C(CNCCS)P(=O)(O)O [MABP, 2-(2-mercaptoethylamino)-ethylidene-1,1-bisphosphonate] the “effects on rat weight gain” value ([2]; inclusion of MABP) was “no significant effects”, the “interference of MABP with the TGA crosslinking process (DSC)” value ([4]; equimolar concentration of MABP and TGA (100 mM each) versus the other conditions) was “grossly slowed the crosslinking process” and the “rate of reaction with TGA-epoxy (k)” value [7] was 1.2 mol⁻¹ h⁻¹. The “K * 10^3” value [7, 17] was 1120 1/mol * h and the Reacted substrate [7, 17] was 10%.
In the case of O=CCCCC=O [Glutaraldehyde], the Rat weight ([2]; Cusp implanted) is reported as 268.8 ± 6.5 g and the Ca ([6]; 21-day rat subdermal implants) is reported as 89.03 +/− 5.59* μg/mg dry wt.
